In US20250074891A1 (Anaxis Pharma Pty Ltd., priority 2021, published 2025):

Tests used:
Details in all cases: Table 35
[1] = biological target: RIP1 (Homo sapiens (Human), UniProt Q13546); test: KINOMEscan binding assay, RIP1
[2] = biological target: MLKL (full length) (Homo sapiens (Human), UniProt Q8NB16); test: KINOMEscan binding assay, MLKL (full length)
Method: (§1) Kinase assays. For most assays, kinase-tagged T7 phage strains were grown in parallel in 24-well blocks in an E. coli host derived from the BL21 strain. E. coli were grown to log-phase and infected with T7 phage from a frozen stock (multiplicity of infection=0.4) and incubated with shaking at 32° C. until lysis (90-150 minutes).
(§2) The Hill Slope was set to −1.

[3] = biological target: RIP3 (Homo sapiens (Human), UniProt Q9Y572); test: KINOMEscan binding assay, RIP3
Method: as §1, §2

Chain of MLKL (full length) (Q8NB16 whole entry): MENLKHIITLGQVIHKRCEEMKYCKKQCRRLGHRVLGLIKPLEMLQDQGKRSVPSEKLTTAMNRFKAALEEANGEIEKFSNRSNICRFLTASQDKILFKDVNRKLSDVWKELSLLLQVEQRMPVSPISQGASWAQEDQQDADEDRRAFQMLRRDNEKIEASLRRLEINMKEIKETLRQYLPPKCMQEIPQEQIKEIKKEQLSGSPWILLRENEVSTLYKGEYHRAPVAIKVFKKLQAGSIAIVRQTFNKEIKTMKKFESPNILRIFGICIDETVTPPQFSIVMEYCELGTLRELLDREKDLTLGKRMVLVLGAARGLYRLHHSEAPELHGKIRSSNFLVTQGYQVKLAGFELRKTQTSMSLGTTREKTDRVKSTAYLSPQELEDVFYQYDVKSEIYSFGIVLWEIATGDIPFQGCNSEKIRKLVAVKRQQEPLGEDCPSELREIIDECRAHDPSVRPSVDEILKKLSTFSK
Chain of RIP1 (Q13546 whole entry): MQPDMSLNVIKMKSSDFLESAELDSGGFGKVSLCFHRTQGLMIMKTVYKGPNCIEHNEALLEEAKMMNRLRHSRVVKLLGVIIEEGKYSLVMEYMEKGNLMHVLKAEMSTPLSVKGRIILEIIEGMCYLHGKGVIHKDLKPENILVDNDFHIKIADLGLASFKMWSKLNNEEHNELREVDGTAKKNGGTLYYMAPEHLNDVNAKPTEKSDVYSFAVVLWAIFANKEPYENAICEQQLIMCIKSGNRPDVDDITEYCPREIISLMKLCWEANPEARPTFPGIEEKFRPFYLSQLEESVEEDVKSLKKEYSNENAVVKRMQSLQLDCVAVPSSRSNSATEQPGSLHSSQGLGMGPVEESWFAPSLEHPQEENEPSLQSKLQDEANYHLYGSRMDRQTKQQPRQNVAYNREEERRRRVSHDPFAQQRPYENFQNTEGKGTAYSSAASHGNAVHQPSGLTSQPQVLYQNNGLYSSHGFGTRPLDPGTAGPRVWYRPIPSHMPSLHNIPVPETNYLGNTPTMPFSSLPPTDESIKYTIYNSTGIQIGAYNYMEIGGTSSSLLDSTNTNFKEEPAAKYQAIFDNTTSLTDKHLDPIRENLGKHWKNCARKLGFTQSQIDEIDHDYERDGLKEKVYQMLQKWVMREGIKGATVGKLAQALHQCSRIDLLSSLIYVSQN
Chain of RIP3 (Q9Y572 whole entry): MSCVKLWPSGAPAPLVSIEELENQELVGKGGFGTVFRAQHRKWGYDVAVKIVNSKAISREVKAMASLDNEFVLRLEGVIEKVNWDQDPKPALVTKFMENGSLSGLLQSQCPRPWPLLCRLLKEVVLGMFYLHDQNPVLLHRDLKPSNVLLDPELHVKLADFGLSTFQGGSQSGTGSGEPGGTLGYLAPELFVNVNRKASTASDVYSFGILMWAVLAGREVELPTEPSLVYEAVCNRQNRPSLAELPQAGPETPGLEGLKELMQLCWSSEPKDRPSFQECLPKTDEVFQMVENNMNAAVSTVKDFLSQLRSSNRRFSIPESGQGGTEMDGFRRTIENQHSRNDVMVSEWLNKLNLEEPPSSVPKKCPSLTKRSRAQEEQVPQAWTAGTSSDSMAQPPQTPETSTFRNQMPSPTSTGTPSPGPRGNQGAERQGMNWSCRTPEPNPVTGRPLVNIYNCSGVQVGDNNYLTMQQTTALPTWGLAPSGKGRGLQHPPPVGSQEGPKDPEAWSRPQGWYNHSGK

`CCS(=O)(=O)Nc1ccc(-c2n[nH]c(Nc3cc(C)nc(C)c3)c2C(N)=O)cc1` [Compound 112, 5-((2,6-dimethylpyridin-4-yl)amino)-3-(4-(ethylsulfonamido)phenyl)-1H-pyrazole-4-carboxamide] showed a Kd [1] of over 30 µM, a Kd [2] of under 0.01 µM and a Kd [3] of over 30 µM.
Compound `NC(=O)c1c(-c2ccc(NS(=O)(=O)CC(F)(F)F)cc2OCc2ccc(F)cc2)n[nH]c1Nc1cccc(C(F)(F)F)n1` [Compound 140, 3-(2-((4-fluorobenzyl)oxy)-4-((2,2,2-trifluoroethyl)sulfonamido)phenyl)-5-((6-(trifluoromethyl)pyridine-2-yl)amino)-1H-pyrazole-4-carboxamide] has a Kd [1] of over 30 µM, a Kd [2] of under 0.01 µM and a Kd [3] of over 30 µM.
With `C[C@H](Oc1cc(-c2n[nH]c(Nc3cnc(C4CCOCC4)cn3)c2C(N)=O)ccc1NS(=O)(=O)C(F)F)c1ccc(F)cc1` [Compound 296, (S)-3-(4-((difluoromethyl)sulfonamido)-3-(1-(4-fluorophenyl)ethoxy)phenyl)-5-((5-(tetrahydro-2H-pyran-4-yl)pyrazin-2-yl)amino)-1H-pyrazole-4-carboxamide] the Kd [1] was over 30 µM, the Kd [2] was under 0.01 µM and the Kd [3] was over 30 µM.
`CCS(=O)(=O)Nc1ccc(-c2n[nH]c(Nc3ccc(C(F)(F)F)cn3)c2C(N)=O)cc1` [Compound 93, 3-(4-(ethylsulfonamido)phenyl)-5-((5-(trifluoromethyl)pyridin-2-yl)amino)-1H-pyrazole-4-carboxamide] gave a Kd [1] of over 30 µM, a Kd [2] of under 0.01 µM and a Kd [3] of over 30 µM.
`NC(=O)c1c(-c2ccc(NS(=O)(=O)CC(F)(F)F)c(OC3(c4ccc(F)cc4)CC3)c2)n[nH]c1Nc1cnccn1` [Compound 144, 3-(3-(1-(4-fluorophenyl)cyclopropoxy)-4-((2,2,2-trifluoroethyl)sulfonamido)phenyl)-5-(pyrazin-2-ylamino)-1H-pyrazole-4-carboxamide] gave a Kd [1] of over 30 µM, a Kd [2] of under 0.01 µM and a Kd [3] of over 30 µM.
With `CCS(=O)(=O)Nc1ccc(-c2n[nH]c(Nc3ccccc3)c2C(N)=O)cc1` [Compound 124, 3-(4-(ethylsulfonamido)phenyl)-5-(phenylamino)-1H-pyrazole-4-carboxamide] the Kd [1] was over 30 µM, the Kd [2] was under 0.01 µM and the Kd [3] was over 30 µM.
For `NC(=O)c1c(-c2ccc(NS(=O)(=O)CC(F)(F)F)c(OCc3ccc(F)cc3)c2)n[nH]c1Nc1ccccn1` [Compound 239, 3-{3-[(4-fluorophenyl)methoxy]-4-(2,2,2-trifluoroethanesulfonamido)phenyl}-5-[(pyridin-2-yl)amino]-1H-pyrazole-4-carboxamide], the Kd [1] was over 30 µM, the Kd [2] was under 0.01 µM and the Kd [3] was over 30 µM.
For `NC(=O)c1c(-c2ccc(NS(=O)(=O)CC(F)(F)F)c(Oc3ccc(Cl)cc3)c2)n[nH]c1Nc1cnccn1` [Compound 168, 3-(3-(4-chlorophenoxy)-4-((2,2,2-trifluoroethyl)sulfonamido)phenyl)-5-(pyrazin-2-ylamino)-1H-pyrazole-4-carboxamide], the Kd [1] was over 30 µM, the Kd [2] was under 0.01 µM and the Kd [3] was over 30 µM.
Work on `CCS(=O)(=O)Nc1ccc(-c2n[nH]c(Nc3cncc(C(F)(F)F)n3)c2C(N)=O)cc1OCc1ccc(F)cc1` [Compound 17, 3-(4-(ethylsulfonamido)-3-((4-fluorobenzyl)oxy)phenyl)5-((6-(trifluoromethyl)pyrazin-2-yl)amino)-1H-pyrazole-4-carboxamide] yielded a Kd [1] of over 30 µM, a Kd [2] of under 0.01 µM and a Kd [3] of over 30 µM.
In the case of `C[C@H](Oc1cc(-c2n[nH]c(Nc3cnccn3)c2C(N)=O)ccc1NS(=O)(=O)C(F)F)c1ccc(Cl)cc1` [Compound 252, 3-{3-[(1S)-1-(4-chlorophenyl)ethoxy]-4-(difluoromethanesulfonamido)phenyl}-5-[(pyrazin-2-yl)amino]-1H-pyrazole-4-carboxamide], the Kd [1] is reported as over 30 µM, the Kd [2] is reported as under 0.01 µM and the Kd [3] is reported as over 30 µM.
`CCS(=O)(=O)Nc1ccc(-c2n[nH]c(Nc3cnccn3)c2C(N)=O)c(OCc2ccc(Cl)cc2)c1` [Compound 198, 3-(2-((4-chlorobenzyl)oxy)-4-(ethylsulfonamido)phenyl)-5-(pyrazin-2-ylamino)-1H-pyrazole-4-carboxamide] gave a Kd [1] of over 30 µM, a Kd [2] of under 0.01 µM and a Kd [3] of over 30 µM.
With `C[C@H](Oc1cc(-c2n[nH]c(Nc3ccc(C4CCOCC4)cn3)c2C(N)=O)ccc1NS(=O)(=O)C(F)F)c1ccc(F)cc1` [Compound 278] the Kd [1] was over 30 µM, the Kd [2] was under 0.01 µM and the Kd [3] was over 30 µM.
`CCS(=O)(=O)Nc1ccc(-c2n[nH]c(Nc3ccccn3)c2C(N)=O)cc1OCc1cccc(Cl)c1` [Compound 38, 3-(3-((3-chlorobenzyl)oxy)-4-(ethylsulfon-amido)phenyl)-5-(pyridin-2-ylamino)-1H-pyrazole-4-carboxamide] gave a Kd [2] of under 0.01 µM and a Kd [3] of over 30 µM.
Compound `CCS(=O)(=O)Nc1ccc(-c2n[nH]c(Nc3ccccn3)c2C(N)=O)cc1OCc1ccc(Cl)cc1` [Compound 39, 3-(3-((4-chlorobenzyl)oxy)-4-(ethylsulfon-amido)phenyl)-5-(pyridin-2-ylamino)-1H-pyrazole-4-carboxamide] has a Kd [2] of under 0.01 µM and a Kd [3] of over 30 µM.
With `CCS(=O)(=O)Nc1ccc(-c2n[nH]c(Nc3cccc(C(F)(F)F)n3)c2C(N)=O)c(OCc2ccc(F)cc2)c1` [Compound 141, 3-(4-(ethylsulfonamido)-2-((4-fluorobenzyl)oxy)phenyl)-5-((6-(trifluoromethyl)pyridine-2-yl)amino)-1H-pyrazole-4-carboxamide] the Kd [1] was over 30 µM and the Kd [3] was over 30 µM.
`CCS(=O)(=O)Nc1ccc(-c2n[nH]c(Nc3ccnc(C)n3)c2C(N)=O)cc1` [Compound 125, 3-(4-(ethylsulfonamido)phenyl)-5-((2-methylpyrimidin-4-yl)amino)-1H-pyrazole-4-carboxamide] gave a Kd [1] of over 30 µM and a Kd [3] of over 30 µM.
`C[C@@H](Oc1cc(NS(=O)(=O)C(F)F)ccc1-c1n[nH]c(Nc2cnccn2)c1C(N)=O)c1ccc(F)cc1` [Compound 255, 3-[4-(difluoromethanesulfonamido)-2-[(1R)-1-(4-fluorophenyl)ethoxy]phenyl]-5-[(pyrazin-2-yl)amino]-1H-pyrazole-4-carboxamide] was tested, and the Kd [1] was over 30 µM and the Kd [3] was over 30 µM.
`NC(=O)c1c(-c2ccc(NS(=O)(=O)Cc3cccc(C(F)(F)F)c3)cc2)n[nH]c1Nc1cnccn1` [Compound 83] gave a Kd [1] of over 30 µM and a Kd [3] of over 30 µM.
`CCS(=O)(=O)Nc1ccc(-c2n[nH]c(Nc3ccccn3)c2C(N)=O)cc1OCC1CCCCC1` [Compound 35, 3-(3-(cyclohexyl-methoxy)-4-(ethylsulfon-amido)phenyl)-5-(pyridin-2-ylamino)-1H-pyrazole-4-carboxamide] showed a Kd [1] of over 30 µM and a Kd [3] of over 30 µM.
`CCS(=O)(=O)Nc1ccc(-c2n[nH]c(Nc3cccc(C(F)(F)F)n3)c2C(N)=O)cc1OCc1ccc(Cl)cc1` [Compound 4, 3-(3-((4-chloro-benzyl)oxy)-4-(ethylsulfon-amido)phenyl)-5-((6-(trifluoro-methyl)pyridin-2-yl)amino)-1H-pyrazole-4-carboxamide] showed a Kd [1] of over 30 µM and a Kd [3] of over 30 µM.
In the case of `CCS(=O)(=O)Nc1ccc(-c2n[nH]c(Nc3cccc(C(F)(F)F)n3)c2C(N)=O)cc1OCc1cccc(Cl)c1` [Compound 3, 3-(3-((3-chloro-benzyl)oxy)-4-(ethylsulfon-amido)phenyl)-5-((6-(trifluoro-methyl)pyridin-2-yl)amino)-1H-pyrazole-4-carboxamide], the Kd [1] is reported as over 30 µM and the Kd [3] is reported as over 30 µM.
